Molecular target: T1, Ct7OMT (Coptis teeta, UniProt A0A2Z5FRT2)
T1 construct: gene 7OMT
Test: UPLC-QTOF-MS/MS product detection
Format: biochemical
Conditions: SAM 0.1 mM, substrate 100 uM, pH 8.0, 30 C, 1 h

T1 sequence (A0A2Z5FRT2 entry or part of it): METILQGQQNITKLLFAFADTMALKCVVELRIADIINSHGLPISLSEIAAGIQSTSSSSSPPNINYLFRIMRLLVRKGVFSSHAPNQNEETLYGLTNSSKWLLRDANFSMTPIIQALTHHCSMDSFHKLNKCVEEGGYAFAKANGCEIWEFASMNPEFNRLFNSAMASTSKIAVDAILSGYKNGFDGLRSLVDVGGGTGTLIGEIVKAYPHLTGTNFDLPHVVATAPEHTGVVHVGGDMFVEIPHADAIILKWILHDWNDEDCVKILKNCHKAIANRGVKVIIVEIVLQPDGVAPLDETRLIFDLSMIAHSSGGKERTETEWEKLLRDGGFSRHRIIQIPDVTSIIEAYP

For `Oc1ccc(C[C@@H]2NCCc3cc(O)c(O)cc32)cc1` [compound 1, (S)-norcoclaurine], the UPLC-QTOF-MS/MS product detection was “Ct7OMT also O-methylates (S)-norcoclaurine at C6, yielding (S)-coclaurine”.

From publication PMC5995273, “Identification and Characterization of Genes Involved in Benzylisoquinoline Alkaloid Biosynthesis in Coptis Species” (Frontiers in Plant Science, 2018)
